Source: the supplement of paper PMC10307832

Tests used:
Assay in all cases: relative viability (nuclei count vs DMSO), 5 days (fraction); higher = more cells survive
Sulindac + Tozasertib = compound: CC1=C(CC(=O)O)c2cc(F)ccc2/C1=C\c1ccc([S+](C)[O-])cc1 [Sulindac] + Cc1cc(Nc2cc(N3CCN(C)CC3)nc(Sc3ccc(NC(=O)C4CC4)cc3)n2)n[nH]1 [Tozasertib] (partner 0.1 µM)
How it was run: (§1)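 Relative viability divides the nuclei count in treated wells by that in vehicle wells. Lung cancer cell lines were seeded in 1536-well plates, dosed by pin tool the next day, and fixed and stained after 5 days in one step with final 0.05% Triton X-100, 1% formaldehyde and 1 ug/ml Hoechst. Dosing was a single drug or a fixed anchor-drug dose plus five library-drug doses (not always all listed) in √10 steps, and values are medians of duplicate plates imaged at 4×.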

[1] = compound: O=c1[nH]cc(F)c(=O)[nH]1 [5-Fluorouracil] + CC(C)C[C@H](NC(=O)[C@H](Cc1ccccc1)NC(=O)c1cnccn1)B(O)O [Bortezomib] (partner 0.002 µM)
How it was run: as §1

[2] = compound: O=c1[nH]cc(F)c(=O)[nH]1 [5-Fluorouracil] + CS(=O)(=O)N1CCN(Cc2cc3nc(-c4cccc5[nH]ncc45)nc(N4CCOCC4)c3s2)CC1 [Pictilisib] (partner 1 µM)
How it was run: as §1

[3] = compound: O=c1[nH]cc(F)c(=O)[nH]1 [5-Fluorouracil] + O=C(c1cc(Cc2n[nH]c(=O)c3ccccc23)ccc1F)N1CCN(C(=O)C2CC2)CC1 [Olaparib] (partner 8 µM)
How it was run: as §1

| Cell Line | relative viability (Sulindac + Tozasertib; first compound 0.08 µM) | relative viability (Sulindac + Tozasertib; first compound 0.253 µM) | relative viability (Sulindac + Tozasertib; first compound 2.53 µM) | relative viability (Sulindac + Tozasertib; first compound 8 µM) | relative viability ([1]; first compound 0.02 µM) | relative viability ([1]; first compound 0.2 µM) | relative viability ([1]; first compound 0.6325 µM) | relative viability ([1]; first compound 2 µM) | relative viability ([2]; first compound 0.02 µM) | relative viability ([2]; first compound 0.2 µM) | relative viability ([2]; first compound 0.6325 µM) | relative viability ([2]; first compound 2 µM) | relative viability ([3]; first compound 0.02 µM) | relative viability ([3]; first compound 0.2 µM) | relative viability ([3]; first compound 0.6325 µM) | relative viability ([3]; first compound 2 µM) | relative viability (Sulindac + Tozasertib; first compound 0.8 µM) |
| --- | --- | --- | --- | --- | --- | --- | --- | --- | --- | --- | --- | --- | --- | --- | --- | --- | --- |
| NCI-H1734 | 0.221 | 0.25 | 0.295 | 0.286 | 0.853 | 1.06 | 0.723 | 0.494 | 0.496 | 0.49 | 0.427 | 0.303 | 0.586 | 0.667 | 0.53 | 0.393 |  |
| LU99A | 0.265 | 0.266 | 0.252 | 0.286 | 1.08 | 1.14 | 1.01 | 0.593 | 0.289 | 0.314 | 0.317 | 0.261 | 0.307 | 0.259 | 0.267 | 0.226 | 0.285 |
| RERF-LC-KJ | 0.569 | 0.56 | 0.307 | 0.568 | 1.24 | 1.17 | 1.14 | 0.939 | 0.587 | 0.593 | 0.604 | 0.465 | 0.985 | 0.829 | 0.878 | 0.763 | 0.521 |
| NCI-H2087 | 0.237 | 0.284 | 0.293 | 0.233 | 0.884 | 0.757 | 0.599 | 0.497 | 0.912 | 0.916 | 0.607 | 0.602 | 0.577 | 0.607 | 0.45 | 0.319 |  |
| HCC-78 | 0.445 | 0.476 | 0.42 | 0.367 | 0.471 | 0.546 | 0.525 | 0.274 | 0.236 | 0.182 | 0.181 |  | 0.755 | 0.599 | 0.331 | 0.28 | 0.403 |
